Laboratory results from patent US20150132388A1 (Druggability Technologies Holdings Limited, priority 2013, published 2015).

Legend:
PAMPA permeability = assay type: in vitro ADME; details: both the fed and fasted state simulating conditions
Description: Reference source not found. PAMPA permeability measurements were performed as described by M. Kansi et al. (Journal of medicinal chemistry, 41, (1998) pp 1007) with modifications based on S. Bendels et al (Pharmaceutical research, 23 (2006) pp 2525). Permeability was measured in a 96-well plate assay across an artificial membrane composed of dodecane with 20% soy lecithin supported by a PVDF membrane (Millipore, USA). The receiver compartment was phosphate buffered saline (pH 7.0) supplemented with 1% sodium dodecyl sulfate. The assay was performed at room temperature; incubation time was 1-24 hours. The concentration in the receiver compartment was determined by UV-VIS spectrophotometry (Thermo Scientific Genesys S10).
The ratio of the selected complexation agents and pharmaceutically acceptable excipients (Lutrol F127 and Sodium acetate) was optimized.

[1] = Comparative solubility test (apparent solubility, UV-VIS); assay type: physicochemical; details: distillated water, room temperature, 100 nm syringe filter
Description: The samples were dispersed in distillated water and the resulting dispersions were filtered by 100 nm disposable syringe filter. The active content in the filtrate was measured by UV-Vis spectrophotometry and the solubility was calculated.

[2] = cited from earlier work
[3] = system: tamoxifen-resistant, as well as estrogen-sensitive human breast cancer (MCF-7) cell lines; details: tamoxifen-resistant and estrogen-sensitive MCF-7 cell lines; cited from earlier work
[4] = system: xenografts of human breast cancer MCF-7 cells; details: cited from earlier work
[5] = immature or ovariectomized mice and rats; cited from earlier work
[6] = immature rats and ovariectomized monkeys; cited from earlier work
[7] = intramuscular injection of 250 mg

## 7-alpha-[9-(4,4,5,5,5-penta fluoropentylsulphinyl)nonyl]estra-1,3,5-(10)-triene-3,17 beta-diol [Fulvestrant]
PAMPA permeability
  PAMPA permeability: not detectable
[1]
  Solubility (apparent solubility): < 30 µg/mL
[2]; 250 mg intramuscularly
  Time to maximum plasma concentrations: about 7 days
[2]; in vivo
  Excretion via the feces: approximately 90%
  Renal elimination: less than 1%
[2]; [7]
  Apparent half-life: about 40 days
  Clearance (Mean±SD): 690 ± 226 mL/min
[2]; intramuscular, between study comparisons
  Bioavailability: 90-100%
[2]; once a month administration
  Accumulation: 2-3 fold
  Time to steady state: about 6 months
[2]; single dose studies, intramuscular
  Terminal half-life: about 50 days
[3]
  Inhibition of cell growth: reversible inhibitor of the growth
[4]; MCF-7 cells in nude mice
  Establishment of tumors from xenografts: delayed the establishment of tumors
[4]; established MCF-7 xenografts and tamoxifen-resistant breast tumor xenografts
  Growth of established xenografts: inhibited the growth
[5]
  Agonist-type effects in uterotropic assays: no agonist-type effects
[6]
  Effect on the uterotrophic action of estradiol: blocked the uterotrophic action of estradiol
